Measurements as given in patent US12054464B1, “Methyl 4-((5-(3-fluorophenyl)-4-phenyl-4H-1,2,4-triazol-3-ylthio)methyl)benzoate as an antimicrobial compound” (KING FAISAL UNIVERSITY, priority 2023, dated 2024).

Tests used:
Bacillus Cereus = test: agar plate disc-diffusion, antibacterial activity by inhibition zone; type: cell-based; details: Bacillus Cereus (Gram positive)
Method: (§1) The agar plate disc-diffusion method was applied. Sterilized filter papers (6 mm in diameter) were wetted with 10 μL of a solution of methyl 4-((5-(3-fluorophenyl)-4-phenyl-4H-1,2,4-triazol-3-ylthio)methyl)benzoate (III) to be tested, containing 10 mg/mL in DMSO, and the discs were allowed to air dry. The discs were then placed onto the surface of agar plates (nutrient agar for bacteria and Sabouraud's dextrose agar for fungi) seeded with the test organism. Each plate contained 15 mL of the agar medium, previously seeded with 0.2 mL of the broth culture of each organism pregrown for 18 hours. The plates were incubated at 37 °C for 48 hours, and 72 hours for fungi. The inhibition zones were measured in mm. Discs impregnated with DMSO were used as a control, and its inhibition zone was subtracted from the tested compound actual inhibition zone.

Escherichia coli = test: as above; type: cell-based; details: Escherichia coli (Gram negative)
Method: as §1

Pseudomonas aeruginosa = test: as above; type: cell-based; details: Pseudomonas aeruginosa (Gram negative)
Method: as §1

Staphylococcus aureus = test: as above; type: cell-based; details: Staphylococcus aureus (Gram positive)
Method: as §1

Aspergillus flavus = test: agar plate disc-diffusion, antifungal activity by inhibition zone; type: cell-based
Method: as §1

[1] = system: Chrysosporium keratinophilum; test: as above; type: cell-based
Method: as §1

[2] = A = concentration of comp. = 10,000 μL
[3] = B = concentration of comp. = 30,000 μL
[4] = C = concentration of comp. = 50,000 μL

Row | melting point [°C] | Structure (SMILES) | inhibition zone (Bacillus Cereus; [2]) [mm] | inhibition zone (Bacillus Cereus; [3]) [mm] | inhibition zone (Bacillus Cereus; [4]) [mm] | inhibition zone (Escherichia coli; [2]) [mm] | inhibition zone (Escherichia coli; [3]) [mm] | inhibition zone (Escherichia coli; [4]) [mm] | inhibition zone (Pseudomonas aeruginosa; [2]) [mm] | inhibition zone (Pseudomonas aeruginosa; [3]) [mm] | inhibition zone (Pseudomonas aeruginosa; [4]) [mm] | inhibition zone (Staphylococcus aureus; [2]) [mm] | inhibition zone (Staphylococcus aureus; [3]) [mm] | inhibition zone (Staphylococcus aureus; [4]) [mm] | inhibition zone (Aspergillus flavus; [2]) [mm] | inhibition zone (Aspergillus flavus; [3]) [mm] | inhibition zone (Aspergillus flavus; [4]) [mm] | inhibition zone [1, 2] [mm] | inhibition zone [1, 3] [mm] | inhibition zone [1, 4] [mm]
1 | 185 to 186 | COC(=O)c1ccc(CSc2nnc(-c3cccc(F)c3)n2-c2ccccc2)cc1 [III, methyl 4-((5-(3-fluorophenyl)-4-phenyl-4H-1,2,4-triazol-3-ylthio)methyl)benzoate] | 28 | 29 | 40 | 29 | 38 | 54 | 24 | 33 | 40 | 14 | 20 | 23 | 19 | 24 | 34 | 28 | 30 | 49
2 |  | O=C(O)c1cn(C2CC2)c2cc(N3CCNCC3)c(F)cc2c1=O [Cip., ciprofloxacin, reference compound] | 29 | 30 | 42 | 30 | 39 | 60 | 29 | 30 | 53 | 43 | 44 | 53 | 29 | 30 | 42 | 29 | 30 | 53
